Results on three compounds are retold here after paper PMC9133069, “In vitro proliferation and long-term preservation of functional primary rat hepatocytes in cell fibers” (Scientific Reports, 2022).

One may read the IC50 as the concentration that gives 50% inhibition.

Common to all, as to type: cell-based
Experiment [1] deals with primary rat hepatocytes. Put plainly: Hepatotoxicity assessment, albumin secretion (ELISA) after 24 h compound treatment. The following applies: Hepatocyte, 24 h treatment. The method, then: (§1) To explore the possible application of cell fibers encapsulating primary hepatocytes in the field of drug screening, we evaluated the potential of cell fibers for in vitro detection of hepatotoxicity of drugs. […] First, primary rat hepatocytes were encapsulated into core–shell hydrogel microfibers at the initial cell seeding density of 2.5 × 10^7 cells mL^−1 and were cultured in the media supplemented with 3T3CM. Secondly, the concentration-reaction curves for these compounds were obtained through the assays of cellular viability, albumin secretion, and urea synthesis performed at different time points: 4 days, 7 days, 14 days, and 30 days after the start of culture. Thirdly, based upon these concentration-reaction curves (Figs. S4–S7), the corresponding IC50 values were estimated. Moreover, we attempted to compare these IC50 values with those obtained using another culture system where primary rat hepatocytes were cultured on collagen-coated 24-well plates.
(§2) The amount of albumin in culture medium was measured using an enzyme-linked immunosorbent assay kit (rat albumin ELISA kit, Bethyl Laboratories, Montgomery, TX). The amount of urea in culture medium was measured using an assay kit (QuantiChrom urea assay kit, BioAssay Systems, Hayward, CA). For both assays, respective absorbency at 450 nm or at 430 nm was measured using a microplate reader (MTP-810, Corona Electric, and Hitachi, Japan). All the values were normalized by the number of hepatocytes and the data were expressed as protein amount 10^–6 cells time^−1.
(§3) Primary rat hepatocytes cultured either in cell fibers or in collagen-coated 24-well plates were treated for 24 h with either of these compounds diluted in media at intended concentrations, and then the respective compound-treated hepatocytes underwent assays of their different specific characteristics: cell viability, albumin secretion, or urea synthesis. Data from drug-treated hepatocytes were normalized to the respective untreated controls in the same culture system. By plotting these normalized data on y-axis and the concentrations of compounds on x-axis, the concentration-reaction curves were generated.
(§4) Culture of primary rat hepatocytes in cell fibers
(§5) After formation of core-shell hydrogel microfibers encapsulating primary rat hepatocytes, they were incubated at 37 °C for more than 15 minutes to set the ECM proteins at the core region into gels. Subsequently, primary rat hepatocytes in cell fibers were cultured in DMEM supplemented with 1% Glutamax, 10% heat-inactivated FBS, 100 IU mL-1 penicillin, 100 mg mL-1 streptomycin, insulin, 6.25 mg mL-1 transferrin, 6.25 ng mL-1 selenous acid (Lonza, Tokyo, Japan), and 1mM HEPES at 37 °C under a water saturated 5% CO2 environment; this medium is the one that have been optimized to […]
(§6) were performed every 48 hours. […]
Culture of primary rat hepatocytes using collagen-coated 24-well plates 5x10^5 primary rat hepatocytes freshly isolated were seeded on collagen-coated 24-well plates (Corning Japan K.K, Tokyo, Japan). The primary rat hepatocytes were first cultured in Dulbecco’s Modified Eagle’s Medium (DMEM; Gibco, Tokyo, Japan) supplemented with 1% Glutamax (Life Technologies, Tokyo, Japan), 10% heat-inactivated foetal bovine serum (Equitech-Bio, Kerrville, TX), 100 IU mL-1 penicillin (Gibco), 100 mg mL-1 streptomycin (Gibco), and 1mM HEPES (Sigma Aldrich, Japan) at 37 °C under a water saturated 5% CO2 environment. […]
For orientation: ELISA stands for enzyme-linked immunosorbent assay.

In experiment [2] the test system is primary rat hepatocytes. Description: Hepatotoxicity assessment, cell viability (trypan blue exclusion) after 24 h compound treatment. The note with it: Hepatocyte, 24 h treatment. As for the experimental part:
as §1, §3, §4, §5, §6
Culture of primary rat hepatocytes using collagen-coated 24-well plates 5x10^5 primary rat hepatocytes freshly isolated were seeded on collagen-coated 24-well plates (Corning Japan K.K, Tokyo, Japan). The primary rat hepatocytes were first cultured in Dulbecco’s Modified Eagle’s Medium (DMEM; Gibco, Tokyo, Japan) supplemented with 1% Glutamax (Life Technologies, Tokyo, Japan), 10% heat-inactivated foetal bovine serum (Equitech-Bio, Kerrville, TX), 100 IU mL-1 penicillin (Gibco), 100 mg mL-1 streptomycin (Gibco), and 1mM HEPES (Sigma Aldrich, Japan)

For experiment [3], the system named is primary rat hepatocytes. Put plainly: Hepatotoxicity assessment, urea synthesis after 24 h compound treatment. The following applies: Hepatocyte, 24 h treatment. As for the experimental part:
as §1, §2, §3, §4, §5, §6
Culture of primary rat hepatocytes using collagen-coated 24-well plates 5x10^5 primary rat hepatocytes freshly isolated were seeded on collagen-coated 24-well plates (Corning Japan K.K, Tokyo, Japan). The primary rat hepatocytes were first cultured in Dulbecco’s Modified Eagle’s Medium (DMEM; Gibco, Tokyo, Japan) supplemented with 1% Glutamax (Life Technologies, Tokyo, Japan), 10% heat-inactivated foetal bovine serum (Equitech-Bio, Kerrville, TX), 100 IU mL-1 penicillin (Gibco), 100 mg mL-1 streptomycin (Gibco), and 1mM HEPES (Sigma Aldrich, Japan) at 37 °C under a water saturated 5% CO2 environment. Three hours after the beginning of culture, media were changed and the primary rat hepatocytes started to be cultured in William’s medium E (Life Technologies) supplemented with 1% Glutamax, 100 IU mL-

The subject of experiment [4] is primary rat hepatocytes. Description: Assessment of hepatocyte proliferation inhibition in cell fibers. The source says:
Practically, core–shell hydrogel microfibers were fabricated to encapsulate primary rat hepatocytes at the initial cell seeding density of 2.5 × 10^7 cells mL^−1.
For that, we first fabricated cell fibers encapsulating primary rat hepatocytes at the initial cell seeding density of 2.5 × 10^7 cells mL^−1. […] Subsequently, we compared these two groups over time by analyzing their morphology and cell number.
Counting primary rat hepatocytes and evaluating their viability per cell fiber were performed three times and averaged. Prior to those procedures, the alginate shells were removed, and the primary rat hepatocytes were retrieved. To remove the shells of the cell fibers, 4 mg mL^−1 of alginate lyase (Sigma Aldrich) in Dulbecco's Phosphate-Buffered Saline (DPBS) (+) was added at a 1:100 ratio to the culture media, and the media were incubated for 15 min. To retrieve primary rat hepatocytes from ECM, 4 mg mL^−1 of collagenase (Sigma-Aldrich) in DPBS (+) was added at a 1:50 ratio to the culture media and the media were incubated for 5 min. The cell number of primary rat hepatocytes per cell fiber was counted by using cell-counting plate (WakenBtech, Japan). The cellular viabilities were examined by the trypan blue dye-exclusion test.
Then immediately, this working solution was diluted in media at intended concentrations. The changeover between starting and stopping exposure to retrorsine was done by medium replacement; the culture media surrounding the cell fibers can be completely removed from petri dishes to be replaced with new ones while keeping the cell fibers intact. The proliferation rate of the hepatocytes in the experimental groups was calculated by dividing the numbers of the hepatocytes that proliferated from 2 days of culture to 3 days of culture in the experimental groups with the ones in the control group.

Where [5] appears, read: cell fibers (core–shell hydrogel microfibres), culture duration 4 days.
[6] abbreviates: cell fibers (core–shell hydrogel microfibres), culture duration 7 days.
The mark [7] stands for this setting: cell fibers (core–shell hydrogel microfibres), culture duration 14 days.
[8] abbreviates: cell fibers (core–shell hydrogel microfibres), culture duration 30 days.
The mark [9] stands for this setting: collagen-coated 24-well plates, culture duration 4 days.

`CC(=O)Nc1ccc(O)cc1` [Acetaminophen]: the IC50 with primary rat hepatocytes [1] (setting [5]) amounted to 16.7 mM; with primary rat hepatocytes [1] (setting [6]) it was 16.4 mM; in the experiment on primary rat hepatocytes [1] (setting [7]) it was 16.3 mM; in the experiment on primary rat hepatocytes [1] (setting [8]), 15.9 mM; in the experiment on primary rat hepatocytes [1] (setting [9]) it was 8.51 ± 0.089 mM; in the experiment with primary rat hepatocytes [2] (setting [5]), 18.3 mM. Besides, the IC50 in the experiment with primary rat hepatocytes [2] (setting [6]) stood at 18.6 mM; in the experiment on primary rat hepatocytes [2] (setting [7]), 18.9 mM; with primary rat hepatocytes [2] (setting [8]) it was 18.9 mM; in the experiment with primary rat hepatocytes [2] (setting [9]), 19.3 mM; in the experiment with primary rat hepatocytes [3] (setting [5]) it was 17 mM; in the experiment on primary rat hepatocytes [3] (setting [6]), 15.9 mM. Besides, the IC50 amounted to 15.9 mM in the experiment on primary rat hepatocytes [3] (setting [7]), 17.3 mM in the experiment with primary rat hepatocytes [3] (setting [8]) and 24 mM in the experiment on primary rat hepatocytes [3] (setting [9]).

As to `O=C(O)Cc1ccccc1Nc1c(Cl)cccc1Cl` [Diclofenac], the IC50 in the experiment with primary rat hepatocytes [2] (setting [9]) amounted to 0.472 ± 0.098 mM; with primary rat hepatocytes [3] (setting [9]), 0.385 ± 0.041 mM.

In the case of retrorsine, the “number of the cells in cell fibers during exposure” value in the experiment with primary rat hepatocytes [4] (10 mg mL^−1, 24 h from day 2 to day 3 of culture, media containing 3T3CM) is reported as “did not change”. Further, the “IC50 value, inhibition of primary rat hepatocyte proliferation” value in the experiment on primary rat hepatocytes [4] (cell fibers with 3T3CM, 24 h exposure after 2 days of culture) worked out at 3100 ± 100 µg/mL. The IC50 in the experiment with primary rat hepatocytes [4] (cell fibers with 3T3CM, 24 h exposure after 2 days of culture, converted from mg mL^−1) was around 8.82 mM.
